According to patent EP4534147A1, “STING ANTAGONIST COMPOUNDS” (Sulis Therapeutics ApS, priority 2023, dated 2025):

Molecular target: C-terminal domain (CTD) of human STING (Homo sapiens, UniProt Q86WV6)
Test: STING binding FP assay II (as FP assay I, lower STING concentration)
Design: recombinant human STING protein (155-379)
Details: 7 nM STING in buffer A, 4 nM fluorescein-labelled STING ligand (Probe 1)
Description: The interaction between molecules and the C-terminal domain (CTD) of human STING was evaluated using a competition binding assay. In this assay, recombinant human STING protein (155-379) and a STING binding fluorescent probe were employed. Upon binding of the probe to STING, the rotation of the fluorescent probe is slowed due to the larger molecular size of the protein-bound complex. As a result, emitted light retains its plane of polarization, leading to an increase in fluorescence polarization. Molecules competing for the probe binding site displace the probe, which leads to rapid randomization of the polarization plane of the emitted light and a subsequent decrease in measured fluorescence polarization signal. Change in polarization was measured, allowing a comparative evaluation of the binding affinities of different compounds to the target protein.
The assay was performed in 96-well plates (ThermoFisher, cat.# 237108) containing 100 µl : 10 µL test compound in 10% DMSO and buffer A (150 mM NaCl, 50 mM HEPES pH 7.5, 1 mM DTT) + 90 µL prepared master mix solution of: 4 nM fluorescein-labelled STING ligand (Probe 1; synthesis described above) in buffer A + 0.055% Tween-20 (v/v) and 35 nM STING in buffer A. Post mixing, plates were agitated at 600 rpm and incubated for 20 min at room temperature. Subsequent measurements of the fluorescence polarization signal were made on a BioTek Synergy-H1 plate reader, using a polarization filter; excitation: 485/20 nm, emission: 528/20 nm) with a gain-setting of 75. IC50 values were determined using a standard non-linear regression four-parameter curve fit in Graphpad Prism.
The procedure for STING binding FP assay II is the same as described for STING binding FP assay I, except for a lower STING concentration. In STING binding FP assay II, a concentration of 7 nM STING in buffer A was used.

Sequence of C-terminal domain (CTD) of human STING (Q86WV6 155-379): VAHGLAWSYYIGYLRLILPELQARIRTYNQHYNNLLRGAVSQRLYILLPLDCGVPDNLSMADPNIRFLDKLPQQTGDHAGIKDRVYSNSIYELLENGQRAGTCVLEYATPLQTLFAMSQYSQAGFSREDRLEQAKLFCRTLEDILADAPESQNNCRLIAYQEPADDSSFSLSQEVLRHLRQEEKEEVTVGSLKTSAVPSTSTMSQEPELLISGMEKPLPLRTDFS

IC50	SMILES
4.8 nM	CCn1nc(C)cc1C(=O)N=c1n(C)c2cc(C(N)=O)ccc2n1CCC(CCn1c(=NC(=O)c2cc(C)nn2CC)n(C)c2cc(C(N)=O)ccc21)OCC(=O)n1nc(C)cc1N (centres unmarked) [Example 24, 1-{3-[2-(5-Amino-3-methyl-1-pyrazolyl)-2-oxoethoxy]-5-{5-carbamoyl-2-[(1-ethyl-3-methyl-5-pyrazolyl)carbonylimino]-3-methyl-2,3-dihydro-1H-1,3-benzimidazol-1-yl}pentyl}-2-[(1-ethyl-3-methyl-5-pyrazolyl)carbonylimino]-3-methyl-2,3-dihydro-1H-1,3-benzimidazole-5-carboxamide]
4.8 nM	CCn1nc(C)cc1C(=O)N=c1n(C)c2cc(C(N)=O)ccc2n1CCC(CCn1c(=NC(=O)c2cc(C)nn2CC)n(C)c2cc(C(N)=O)ccc21)OCC(=O)N(C(C)C)C(C)C (centres unmarked) [Example 21, 1-(3-{[Bis(isopropyl)carbamoyl]methoxy}-5-{5-carbamoyl-2-[(1-ethyl-3-methyl-5-pyrazolyl)carbonylimino]-3-methyl-2,3-dihydro-1H-1,3-benzimidazol-1-yl}pentyl)-2-[(1-ethyl-3-methyl-5-pyrazolyl)carbonylimino]-3-methyl-2,3-dihydro-1H-1,3-benzimidazole-5-carboxamide]
3.7 nM	CCn1nc(C)cc1C(=O)N=c1n(C)c2cc(C(N)=O)ccc2n1CCC(CCn1c(=NC(=O)c2cc(C)nn2CC)n(C)c2cc(C(N)=O)ccc21)OCC(=O)N1CCC[C@@H]1c1cc(F)ccc1F (stereo partly drawn) [Example 27, 1-(3-{2-[(R)-2-(2,5-Difluorophenyl)-1-pyrrolidinyl]-2-oxoethoxy}-5-{5-carbamoyl-2-[(1-ethyl-3-methyl-5-pyrazolyl)carbonylimino]-3-methyl-2,3-dihydro-1H-1,3-benzimidazol-1-yl}pentyl)-2-[(1-ethyl-3-methyl-5-pyrazolyl)carbonylimino]-3-methyl-2,3-dihydro-1H-1,3-benzimidazole-5-carboxamide]
6.3 nM	CCn1nc(C)cc1C(=O)N=c1n(C)c2cc(C(N)=O)ccc2n1CCC(CCn1c(=NC(=O)c2cc(C)nn2CC)n(C)c2cc(C(N)=O)ccc21)OCC(=O)n1nc(N)cc1C (centres unmarked) [Example 23, 1-{3-[2-(3-Amino-5-methyl-1-pyrazolyl)-2-oxoethoxy]-5-{5-carbamoyl-2-[(1-ethyl-3-methyl-5-pyrazolyl)carbonylimino]-3-methyl-2,3-dihydro-1H-1,3-benzimidazol-1-yl}pentyl}-2-[(1-ethyl-3-methyl-5-pyrazolyl)carbonylimino]-3-methyl-2,3-dihydro-1H-1,3-benzimidazole-5-carboxamide]
4.6 nM	CCn1nc(C)cc1C(=O)N=c1n(C)c2cc(C(N)=O)ccc2n1CCC(CCn1c(=NC(=O)c2cc(C)nn2CC)n(C)c2cc(C(N)=O)ccc21)OCC(=O)N1CCC[C@H]1c1ccccc1 (stereo partly drawn) [Example 25, 1-(3-{2-[(S)-2-Phenyl-1-pyrrolidinyl]-2-oxoethoxy}-5-{5-carbamoyl-2-[(1-ethyl-3-methyl-5-pyrazolyl)carbonylimino]-3-methyl-2,3-dihydro-1H-1,3-benzimidazol-1-yl}pentyl)-2-[(1-ethyl-3-methyl-5-pyrazolyl)carbonylimino]-3-methyl-2,3-dihydro-1H-1,3-benzimidazole-5-carboxamide]
